Experimental findings from patent US8304234B2, “Compositions and methods for delivery of genetic material” (The Trustees of the Universtiy of Pennsylvania, priority 1993, dated 2012) are described below.

Experiment [1] has as its system tumor cells transfected with DNA encoding neu. The experiment is described as follows: Tumor challenge model, tumor cells transfected with DNA encoding neu.
Description: In experiments designed to compare the immunogenic response elicited by genetic vaccination and protein vaccination, animal models were designed using tumor cells that specifically express a foreign target protein. Three immune competent mouse models have been developed which express foreign antigens. Three clonal tumor cell lines which are derived from the Balb/c mouse strain are used. […] Subclones have been selected which can display foreign antigens in an unrecognized form. […] Using these models, the immune response elicited by genetic vaccination against an antigen can be measured.
A DNA construct was designed to test the effectiveness of a genetic vaccine against human p185neu in mice. […] The animal model used was described above. Tumor cells were transfected with DNA encoding neu, confirmed to express the protein and implanted into the animal. Controls included untransfected tumor lines.
Controls included unvaccinated animals and animals administered the p185neu protein.
For experiment [2], the system named is tumor cells transfected with DNA encoding GA733. The experiment in a line: Tumor challenge model, tumor cells transfected with DNA encoding GA733.
Description: Using these models, the immune response elicited by genetic vaccination against an antigen can be measured.
A DNA construct was designed to test the effectiveness of a genetic vaccine against human GA733 in mice. […] The animal model used was described above. Tumor cells were transfected with DNA encoding GA733, confirmed to express the protein and implanted into the animal. Controls included untransfected tumor lines.
Genetically immunized animals were vaccinated with plasmid pGA733-2, described in Example 14, following the method described above. Controls included unvaccinated animals and animals administered the GA733 protein.

Consider “p185 protein: p185neu protein administered to control animals”, for which the “effect on transfected tumors” value in experiment [1] (neu-transfected tumors, vaccinated mice) is “some reduction in tumor size”. Further, the effect on mortality entry in experiment [1] (vaccinated mice bearing tumors) is recorded as “no effect on mortality”.

B1: GA733 protein: GA733 protein administered to control animals (protein, UniProt P16422 24-314, looked up)
Epithelial cell adhesion …: QEECVCENYKLAVNCFVNNNRQCQCTSVGAQNTVICSKLAAKCLVMKAEMNGSKLGRRAKPEGALQNNDGLYDPDCDESGLFKAKQCNGTSMCWCVNTAGVRRTDKDTEITCSERVRTYWIIIELKHKAREKPYDSKSLRTALQKEITTRYQLDPKFITSILYENNVITIDLVQNSSQKTQNDVDIADVAYYFEKDVKGESLFHSKKMDLTVNGEQLDLDPGQTLIYYVDEKAPEFSMQGLKAGVIAVIVVVVIAVVAGIVVLVISRKKRMAKYEKAEIKEMGEMHRELNA
As for B1, the “effect on transfected tumors” value in experiment [2] (GA733-transfected tumors, vaccinated mice) is on record as “some reduction in tumor size”. Besides, the effect on mortality entry in experiment [2] (vaccinated mice bearing tumors) is reported as “no effect on mortality”.
